28 compounds from patent US6414154B1, “Tetraisoquinoline derivatives as modulators of dopamine D3 receptors” (SmithKline Beecham p.l.c., priority 1998, dated 2002) can be followed below.

SMILES strings stand for the structures. Counter-ions that a name gives are not always drawn.

T1 sequence (P35462 whole entry): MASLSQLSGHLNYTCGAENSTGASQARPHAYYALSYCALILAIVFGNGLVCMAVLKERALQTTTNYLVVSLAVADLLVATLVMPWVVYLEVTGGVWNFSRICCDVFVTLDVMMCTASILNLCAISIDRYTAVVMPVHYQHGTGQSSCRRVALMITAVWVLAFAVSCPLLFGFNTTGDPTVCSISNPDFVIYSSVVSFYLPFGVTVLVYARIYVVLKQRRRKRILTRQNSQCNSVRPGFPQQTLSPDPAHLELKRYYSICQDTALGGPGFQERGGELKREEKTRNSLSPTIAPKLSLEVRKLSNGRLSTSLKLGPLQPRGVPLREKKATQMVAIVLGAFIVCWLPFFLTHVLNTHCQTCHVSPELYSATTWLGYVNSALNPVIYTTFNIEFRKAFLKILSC

This test has as its target T1, human D3 dopamine receptors (Homo sapiens, UniProt P35462).
T1 construct: expressed in transfected cells; host or cells: CHO cells (crude cell membranes)
In words: displacement of [125I] iodosulpride binding to cloned human D3 dopamine receptors expressed in CHO cells. As to conditions: 0.1 nM [125I] iodosulpride, CHO cell membranes, 30 min at 37° C.; read-out: pKi at the D3 receptor (converted). The procedure: The inhibition constants (Ki) of test compounds for displacement of [^125I] iodosulpride binding to human D3 dopamine receptors expressed in CHO cells were determined as follows. […] Cultures were grown as monolayers or in suspension in standard cell culture media. Cells were recovered by scraping (from monolayers) or by centrifugation (from suspension cultures), and were washed two or three times by suspension in phosphate buffered saline followed by collection by centrifugation. Cell pellets were stored frozen at −40° C. Crude cell membranes were prepared by homogenisation followed by high-speed centrifugation, and characterisation of cloned receptors achieved by radioligand binding.
Cell pellets were gently thawed at room temperature, and resuspended in about 20 volumes of ice-cold 50 mM Tris salts (pH 7.4@37° C.), 20 mM EDTA, 0.2 M sucrose. The suspension was homogenised using an Ultra-Turrax at full speed for 15 sec. The homogenate was centrifuged at 18,000 r.p.m for 20 min at 4° C. in a Sorvall RC5C centrifuge. The membrane pellet was resuspended in ice-cold 50 mM Tris salts (pH 7.4@37° C.), using an Ultra-Turrax, and recentrifuged at 18,000 r.p.m for 15 min at 4° C. in a Sorvall RC5C. The membranes were washed two more times with ice-cold 50 mM Tris salts (pH 7.4@37° C.). The final pellet was resuspended in 50 mM Tris salts (pH 7.4@37° C.), and the protein content determined using bovine serum albumin as a standard (Bradford, M. M. (1976) Anal. Biochem. 72, 248-254).
Crude cell membranes were incubated with 0.1 nM [^125I] iodosulpride (˜2000 Ci/mmol; Amersham, U. K.), and the test compound in a buffer containing 50 mM Tris salts (pH 7.4@37° C.), 120 mM NaCl, 5 mM KCl, 2 mM CaCl2, 1 mM MgCl2, 0.1% (w/v) bovine serum albumin, in a total volume of 1 ml for 30 min at 37° C. Following incubation, samples were filtered using a Brandel Cell Harvester, and washed three times with ice-cold 50 mM Tris salts (pH 7.4@37° C.), 120 mM NaCl, 5 mM KCl, 2 mM CaCl2, 1 mM MgCl2. The radioactivity on the filters was measured using a Cobra gamma counter (Canberra Packard). Non-specific binding was defined as the radioligand binding remaining after incubation in the presence of 100 μM iodosulpride. For competition curves, 14 concentrations (half-log dilutions) of competing cold drug were used. Competition curves were analysed simultaneously whenever possible using non-linear least-squares fitting procedures, capable of fitting one, two or three site models.
As to `N#Cc1cccc(CC(=O)N[C@H]2CC[C@H](CCN3CCc4cc(C#N)ccc4C3)CC2)c1` [Example 6, trans-6-Cyano-2-(2-(1-(4-(3-cyanophenyl)acetamido)cyclohexyl)ethyl)-1,2,3,4-tetrahydroisoquinoline], the Ki is 3.16 to 12.6 nM.

Turning to `N#Cc1ccc2c(c1)CCN(CC[C@H]1CC[C@H](NC(=O)Cc3cccc(Br)c3)CC1)C2` [Example 18, trans-6-Cyano-2-(2-(1-(4-(3-bromo)phenylacetamido)cyclohexyl)-ethyl)-1,2,3,4-tetrahydroisoquinoline], the Ki was 3.16 to 12.6 nM.

As for `N#Cc1ccc2c(c1)CCN(CC[C@H]1CC[C@H](NC(=O)Cc3ccc4ccccc4c3)CC1)C2` [Example 2, trans-6-Cyano-2-(2-(1-(4-(2-naphthyl)acetamido)cyclohexyl)ethyl)-1,2,3,4-tetrahydroisoquinoline], the Ki is 3.16 to 12.6 nM.

Take `N#Cc1ccc2c(c1)CCN(CC[C@H]1CC[C@H](NC(=O)Cc3cccc(F)c3)CC1)C2` [Example 4, trans-6-Cyano-2-(2-(1-(4-(3-fluorophenyl)acetamido)cyclohexyl)ethyl)-1,2,3,4-tetrahydroisoquinoline]: the Ki is 3.16 to 12.6 nM.

Take `N#Cc1ccc2c(c1)CCN(CC[C@H]1CC[C@H](NC(=O)Cc3ccc(F)c(F)c3)CC1)C2` [Example 14, trans-6-Cyano-2-(2-(1-(4-(3,4-difluoro)phenylacetamido)cyclohexyl)-ethyl)-1,2,3,4-tetrahydroisoquinoline]: the Ki was 3.16 to 12.6 nM.

Turning to `N#Cc1ccc2c(c1)CCN(CC[C@H]1CC[C@H](NC(=O)Cc3cc(F)ccc3F)CC1)C2` [Example 13, trans-6-Cyano-2-(2-(1-(4-(2,5-difluoro)phenylacetamido)cyclohexyl)-ethyl)-1,2,3,4-tetrahydroisoquinoline], the Ki was 3.16 to 12.6 nM.

For `CC(C)(C)c1ccc(CC(=O)N[C@H]2CC[C@H](CCN3CCc4cc(C#N)ccc4C3)CC2)cc1` [Example 21, trans-6-Cyano-2-(2-(1-(4-(4-t-butyl)phenylacetamido)cyclohexyl)-ethyl)-1,2,3,4-tetrahydroisoquinoline], the Ki was 3.16 to 12.6 nM.

Take `N#Cc1ccc2c(c1)CCN(CC[C@H]1CC[C@H](NC(=O)Cc3cc4ccccc4o3)CC1)C2` [Example 31, trans-6-Cyano-2-(2-(1-(4-(2-benzofuranyl)acetamido)-cyclohexyl)ethyl)-1,2,3,4-tetrahydroisoquinoline]: the Ki is 3.16 to 12.6 nM.

Consider `N#Cc1ccc2c(c1)CCN(CC[C@H]1CC[C@H](NC(=O)Cc3ccco3)CC1)C2` [Example 30, trans-6-Cyano-2-(2-(1-(4-(2-furanyl)acetamido)-cyclohexyl)ethyl)-1,2,3,4-tetrahydroisoquinoline], for which the Ki is 3.16 to 12.6 nM.

Regarding `N#Cc1ccc2c(c1)CCN(CC[C@H]1CC[C@H](NC(=O)Cc3ccc(C(F)(F)F)cc3)CC1)C2` [Example 27, trans-6-Cyano-2-(2-(1-(4-(4-trifluoromethyl)phenylacetamido)-cyclohexyl)ethyl)-1,2,3,4-tetrahydroisoquinoline], the Ki was 3.16 to 12.6 nM.

Turning to `N#Cc1ccc2c(c1)CCN(CC[C@H]1CC[C@H](NC(=O)Cc3ccc(F)cc3)CC1)C2` [Example 32, trans-6-Cyano-2-(2-(1-(4-(4-fluorophenyl)acetamido)cyclohexyl)ethyl)-1,2,3,4-tetrahydroisoquinoline, Hydrochloride], the Ki was 3.16 to 12.6 nM.

With `N#Cc1ccc2c(c1)CCN(CC[C@H]1CC[C@H](NC(=O)Cc3cccs3)CC1)C2` [Example 10, trans-6-Cyano-2-(2-(1-(4-(2-thienyl)acetamido)cyclohexyl)ethyl)-1,2,3,4-tetrahydroisoquinoline], the Ki was 3.16 to 12.6 nM.

In the case of `N#Cc1ccc2c(c1)CCN(CC[C@H]1CC[C@H](NC(=O)Cc3cc(F)cc(F)c3)CC1)C2` [Example 28, trans-6-Cyano-2-(2-(1-(4-(3,5-difluoro)phenylacetamido)-cyclohexyl)ethyl)-1,2,3,4-tetrahydroisoquinoline], the Ki was 3.16 to 12.6 nM.

Turning to `N#Cc1ccc2c(c1)CCN(CC[C@H]1CC[C@H](NC(=O)Cc3cc4ccccc4s3)CC1)C2` [Example 29, trans-6-Cyano-2-(2-(1-(4-(2-benzothiophenyl)acetamido)-cyclohexyl)ethyl)-1,2,3,4-tetrahydroisoquinoline], the Ki was 3.16 to 12.6 nM.

As to `N#Cc1ccc2c(c1)CCN(CC[C@H]1CC[C@H](NC(=O)CCCc3ccccc3)CC1)C2` [Example 24, trans-6-Cyano-2-(2-(1-(4-(4-phenyl)butyramido)cyclohexyl)ethyl)-1,2,3,4-tetrahydroisoquinoline], the Ki is 3.16 to 12.6 nM.

On to `N#Cc1ccc2c(c1)CCN(CC[C@H]1CC[C@H](NC(=O)Cc3ccnc4ccccc34)CC1)C2` [Example 26, trans-6-Cyano-2-(2-(1-(4-(4-quinolyl)acetamido)-cyclohexyl)ethyl)-1,2,3,4-tetrahydroisoquinoline], for which the Ki was 3.16 to 12.6 nM.

Take `N#Cc1ccc2c(c1)CCN(CC[C@H]1CC[C@H](NC(=O)Cc3ccc(Br)cc3)CC1)C2` [Example 16, trans-6-Cyano-2-(2-(1-(4-(4-bromo)phenylacetamido)cyclohexyl)-ethyl)-1,2,3,4-tetrahydroisoquinoline]: the Ki is 3.16 to 12.6 nM.

Take `N#Cc1ccc2c(c1)CCN(CC[C@H]1CC[C@H](NC(=O)Cc3c[nH]c4ccccc34)CC1)C2` [Example 12, trans-6-Cyano-2-(2-(1-(4-(3-indolyl)acetamido)cyclohexyl)ethyl)-1,2,3,4-tetrahydroisoquinoline]: the Ki is 3.16 to 12.6 nM.

Regarding `N#Cc1ccc2c(c1)CCN(CC[C@H]1CC[C@H](NC(=O)Cc3ccccc3F)CC1)C2` [Example 3, trans-6-Cyano-2-(2-(1-(4-(2-fluorophenyl)acetamido)cyclohexyl)ethyl)-1,2,3,4-tetrahydroisoquinoline], the Ki was 3.16 to 12.6 nM.

Regarding `N#Cc1ccc2c(c1)CCN(CC[C@H]1CC[C@H](NC(=O)Cc3ccsc3)CC1)C2` [Example 11, trans-6-Cyano-2-(2-(1-(4-(3-thienyl)acetamido)cyclohexyl)ethyl)-1,2,3,4-tetrahydroisoquinoline], the Ki is 3.16 to 12.6 nM.

Regarding `N#Cc1ccc2c(c1)CCN(CC[C@H]1CC[C@H](NC(=O)Cc3ccccn3)CC1)C2` [Example 15, trans-6-Cyano-2-(2-(1-(4-(2-pyridyl)acetamido)cyclohexyl)ethyl)-1,2,3,4-tetrahydroisoquinoline], the Ki was 3.16 to 12.6 nM.

Turning to `N#Cc1ccc(CC(=O)N[C@H]2CC[C@H](CCN3CCc4cc(C#N)ccc4C3)CC2)cc1` [Example 7, trans-6-Cyano-2-(2-(1-(4-(4-cyanophenyl)acetamido)cyclohexyl)ethyl)-1,2,3,4-tetrahydroisoquinoline], the Ki is 3.16 to 12.6 nM.

Turning to `N#Cc1ccc2c(c1)CCN(CC[C@H]1CC[C@H](NC(=O)CCc3ccc(F)cc3)CC1)C2` [Example 25, trans-6-Cyano-2-(2-(1-(4-(3-(4-fluoro)phenyl)propionamido)-cyclohexyl)ethyl)-1,2,3,4-tetrahydroisoquinoline], the Ki is 3.16 to 12.6 nM.

`N#Cc1ccc2c(c1)CCN(CC[C@H]1CC[C@H](NC(=O)COc3ccccc3)CC1)C2` [Example 23, trans-6-Cyano-2-(2-(1-(4-phenoxyacetamido)cyclohexyl)ethyl)-1,2,3,4-tetrahydroisoquinoline]: the Ki is 3.16 to 12.6 nM.

Turning to `N#Cc1ccc2c(c1)CCN(CC[C@H]1CC[C@H](NC(=O)Cc3cccc(C(F)(F)F)c3)CC1)C2` [Example 20, trans-6-Cyano-2-(2-(1-(4-(3-trifluoromethyl)phenylacetamido)-cyclohexyl)ethyl)-1,2,3,4-tetrahydroisoquinoline], the Ki was 3.16 to 12.6 nM.

Consider `N#Cc1ccc2c(c1)CCN(CC[C@H]1CC[C@H](NC(=O)Cc3ccc(I)cc3)CC1)C2` [Example 17, trans-6-Cyano-2-(2-(1-(4-(4-iodo)phenylacetamido)cyclohexyl)ethyl)-1,2,3,4-tetrahydroisoquinoline], for which the Ki was 3.16 to 12.6 nM.

`N#Cc1ccc2c(c1)CCN(CC[C@H]1CC[C@H](NC(=O)CCc3ccccc3)CC1)C2` [Example 8, trans-6-Cyano-2-(2-(1-(4-(3-phenyl)propionamido)cyclohexyl)ethyl)-1,2,3,4-tetrahydroisoquinoline]: the Ki was 3.16 to 12.6 nM.

As for `N#Cc1ccc2c(c1)CCN(CC[C@H]1CC[C@H](NC(=O)Cc3ccccc3)CC1)C2` [Example 1, trans-6-Cyano-2-(2-(1-(4-phenylacetamido)cyclohexyl)ethyl)-1,2,3,4-tetrahydroisoquinoline], the Ki was 3.16 to 12.6 nM.
